In PMC8268581, “Identification of 3,4-Dihydro-2H,6H-pyrimido[1,2-c][1,3]benzothiazin-6-imine Derivatives as Novel Selective Inhibitors of Plasmodium falciparum Dihydroorotate Dehydrogenase” (International Journal of Molecular Sciences, 2021):

Assays:
[1] = biological target: T1, HsDHODH (Homo sapiens, UniProt Q02127); assay: HsDHODH counter-assay; assay type: biochemical; settings: purified recombinant HsDHODH, tested at 4.5 µM; read-out: IC50 DHODH Hs
T1 construct: made in house
Description: Selected hit compounds from PfDHODH screening were tested for potential inhibition against HsDHODH at 4.5 µM. The HsDHODH used in this study was purified as previously reported. The HsDHODH assay was performed similarly to that for PfDHODH, but in an assay mix consisting of 50 mM Tris-HCl pH 8.0, 0.1% (v/v) Triton X-100, 2 mM potassium cyanide (KCN, Wako), 60 µM dUQ, and 120 µM DCIP, with the reaction started by the addition of 200 µM L-DHO (final concentration) in triplicate. For this assay, DMSO was used as a negative control and 10 µM of lapachol was used as a positive control (100% inhibition). The relative inhibition was calculated as described above.

[2] = test system: P. falciparum 3D7; assay: In vitro antimalarial assay (PfLDH/diaphorase); assay type: cell-based; settings: Plasmodium falciparum, growth inhibition, 72 h, 0.0003 to 10 µM, read-out: EC50 Pf3D7
Description: This assay was conducted using human red blood cells (RBC) following the guidelines of the ethics committee of Nagasaki University (permission no. 19). Human RBC was obtained from the Japanese Red Cross Society. The P. falciparum 3D7 strain was cultured in 2% hematocrit type O human RBC in RPMI-1640 medium (Gibco) supplemented with 23.8 mM sodium bicarbonate (Wako), 50 mg/L hypoxanthine (Wako), 25 mg/L gentamycin (Sigma), and 0.5% (w/v) AlbuMAX®® II (Gibco) under a 5% O2, 5% CO2, and 90% N2 atmosphere at 37 °C. Parasites were synchronized with 5% (w/v) D-sorbitol (Wako).
(§1) Synchronized ring-stage parasites at 0.3% parasitemia and 2% hematocrit were cultured in a 384-well plate at 25 µL with test compounds at a final concentration in the range of 0.0003 to 10 µM with a fixed DMSO concentration of 0.4% (v/v). Parasite growth was monitored by the diaphorase-coupled P. falciparum lactate dehydrogenase (PfLDH) assay, as previously described. After 72 h, 70 µL of the assay solution (150 mM lithium L-lactate (Wako), 0.05 mg/mL 3-acetylpyridine adenine dinucleotide (Oriental Yeast Co., Ltd., Tokyo, Japan), 0.2 mg/mL nitro blue tetrazolium (Wako), 1 unit/mL diaphorase, and 100 mM Tris-HCl pH 8.0) were mixed with the parasite culture and incubated at room temperature for 40 min, and the generated nitro blue formazan was measured at 650 nm using a SpectraMax®® Paradigm®® Multi-Mode Microplate Reader. […] The EC50 was calculated using GraphPad Prism 8.0 software from the mean of quadruplets values.

[3] = test system: P. falciparum 3D7 strain expressing the cytosolic yeast DHODH (3D7-yDHODH); assay: Confirmation assay against transgenic parasite 3D7-yDHODH; assay type: cell-based, Plasmodium falciparum; settings: for activity at 10 µM: 72 h, relative parasite growth at 10 µM compound, read-out: Growth at 10 µM (%) Pf3D7-yDHODH; for susceptibility of Pf3D7-yDHODH parasite (in words): relative parasite growth at 10 µM, compared with wild-type 3D7
Description: as §1
The P. falciparum 3D7 strain expressing the cytosolic yeast DHODH (3D7-yDHODH) was prepared as follows. pHHyDHODH-GFP plasmid (Kerafast, Boston, MA, USA) was transfected to the P. falciparum 3D7 strain following the established transfection method. Briefly, 50 µg of plasmid dissolved in cytomix solution (120 mM KCl, 0.15 mM CaCl2, 10 mM K2HPO4/KH2PO4 pH 7.6, 25 mM HEPES-KOH pH 7.6, 2 mM ethylene glycol-bis(β-aminoethyl ether)-N,N,N′,N′-tetraacetic acid (EGTA, Dojindo), and 5 mM magnesium chloride (Wako)) was transfected into the red blood cells by the Gene Pulser Xcell (Bio-Rad). Percoll–sorbitol synchronized parasites were mixed with red blood cells containing plasmid and maintained under 5 nM WR99210 for 2 weeks. The growth of resistant parasites against DSM265 and atovaquone, as PfDHODH and complex III inhibitors respectively, was confirmed by PfLDH/diaphorase assay. A total of 10 µM PfDHODH inhibitors were tested against wild-type 3D7 and 3D7-yDHODH following the method described above in triplicate. The significance of difference between the inhibition of the two parasite strains was evaluated by Student’s t-test (Figure S4).

[4] = Cytotoxicity assay, PANC-1 (Cell Counting Kit-8); assay type: cell-based; settings: PANC-1 human pancreatic carcinoma cells
Description: Human dermal fibroblast cells (HDF, Zenbio, Inc., Durham, NC, USA) were cultured in Dulbecco’s Modified Eagle Medium/Nutrient Mixture F-12 medium (DMEM/F12, Gibco), human pancreatic carcinoma cells (PANC-1, DS Pharma Biomedical, Co., Ltd.) were cultured in DMEM (Gibco), and human colorectal adenocarcinoma cells (DLD-1, Taiho Pharmaceutical Company) were cultured in RPMI-1640 medium (FUJIFILM Wako Pure Chemicals). The culture mediums were supplemented with 10% (v/v) heat-inactivated fetal bovine serum (Gibco) and the cells were maintained at 37 °C under 5% CO2.
HDF, PANC-1, and DLD-1 were seeded at 2.5 × 10^4 cells/well on a 96-well plate and incubated at 37 °C under 5% CO2 overnight. The cells were then washed with PBS and the medium was replaced with 99 µL of fresh media. Then, 1 µL of the compounds or DMSO was added to the respective wells. As controls, wells containing 1% (v/v) DMSO in column 1 and wells containing only the culture medium in column 12 were used as the negative and positive controls, respectively. After 48 h of incubation, the cells were washed with PBS, and 99 µL of fresh media was replaced, followed by the addition of 10 µL of Cell Counting Kit-8 (Dojindo) to each well. After 3 h of incubation, the absorbance was measured at 450 nm using a SpectraMax®® Paradigm®® Multi-Mode microplate Reader. The calculation of cell viability in the test well was based on the absorbance of control wells according to the manufacturer’s protocol. The mean of quadruplet values was used to calculate the CC50 using GraphPad Prism 8.0 software.

T1 sequence (Q02127 whole entry): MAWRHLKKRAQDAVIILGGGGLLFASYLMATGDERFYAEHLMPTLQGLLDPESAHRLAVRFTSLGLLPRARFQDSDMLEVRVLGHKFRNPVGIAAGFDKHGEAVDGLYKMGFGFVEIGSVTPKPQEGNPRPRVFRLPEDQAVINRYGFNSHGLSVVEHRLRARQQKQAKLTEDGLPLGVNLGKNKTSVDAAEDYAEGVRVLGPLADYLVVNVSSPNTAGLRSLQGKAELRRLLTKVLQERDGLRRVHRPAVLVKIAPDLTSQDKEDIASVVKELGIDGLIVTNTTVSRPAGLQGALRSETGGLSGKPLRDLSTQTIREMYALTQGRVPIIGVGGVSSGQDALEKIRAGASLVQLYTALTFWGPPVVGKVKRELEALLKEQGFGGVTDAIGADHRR

SMILES	IC50 [1]	EC50 [2]	activity at 10 µM [3]	EC50 at 48 h [4]	susceptibility of Pf3D7-yDHODH parasite (in words) [3]
O=[N+]([O-])c1ccc(-c2ccc3c(c2)SN2CCCN=C32)cc1 [Compound 39]	> 4.5 µM	1.14 ± 0.06 µM	1.48 ± 0.14%	> 10 µM	–
c1cc2c(cc1-c1ccc3c(c1)SN1CCCN=C31)OCO2 [Compound 32]	> 4.5 µM	1.85 ± 0.53 µM	0.11 ± 0.03%	> 10 µM	–
N=C1Sc2cc(-c3ccc4c(C(=O)OC(F)(F)F)c[nH]c4c3)ccc2C2=NCCCN12 [Compound 6]	> 4.5 µM	0.37 ± 0.05 µM	104.4 ± 0.11%	> 10 µM	reduced susceptibility
N=C1Sc2cc(-c3ccccc3-c3ccccc3)ccc2C2=NCCCN12 [Compound 27]	> 4.5 µM	0.39 ± 0.05 µM	0.25 ± 0.04%	> 10 µM	–
N=C1Sc2cc(-c3ccc(C(F)(F)F)cc3)ccc2C2=NCCCN12 [Compound 15]	> 4.5 µM	1 ± 0.05 µM	-0.38 ± 0.17%	> 10 µM	–
C#CCOCc1ccc(C(=O)c2ccc(-c3ccc4c(c3)SC(=N)N3CCCN=C43)cc2)cc1 [Compound 20]	> 4.5 µM	0.38 ± 0.08 µM	0.45 ± 0.74%	> 10 µM	–
N=C1Sc2cc(-c3ccc4ccccc4c3)ccc2C2=NCCCN12 [Compound 1]	> 4.5 µM	0.43 ± 0.18 µM	-0.62 ± 0.07%	> 10 µM	–
CSc1ccc(-c2ccc3c(c2)SC(=N)N2CCCN=C32)cc1 [Compound 17]	> 4.5 µM	1.62 ± 0.56 µM	-0.5 ± 0.01%	> 10 µM	–
c1ccc(-c2ccc3c(c2)SN2CCCN=C32)cc1 [Compound 30]	> 4.5 µM	9.67 ± 5.09 µM	63.6 ± 5.87%	> 10 µM	reduced susceptibility
N=C1Sc2cc(-c3cccc([N+](=O)[O-])c3)ccc2C2=NCCCN12 [Compound 21]	> 4.5 µM	0.85 ± 0.12 µM	103 ± 0.67%	> 10 µM	reduced susceptibility
CCc1cccc(-c2ccc3c(c2)SC(=N)N2CCCN=C32)c1 [Compound 25]	> 4.5 µM	1.77 ± 0.83 µM	0.01 ± 0.15%	> 10 µM	–
COC(=O)c1ccc(-c2ccc3c(c2)SN2CCCN=C32)cc1 [Compound 37]	> 4.5 µM	2.78 ± 0.27 µM	-0.18 ± 0.05%	> 10 µM	–
N=C1Sc2cc(-c3cc4ccccc4o3)ccc2C2=NCCCN12 [Compound 7]	> 4.5 µM	0.34 ± 0.01 µM	36.2 ± 1.01%	> 10 µM	–
O=[N+]([O-])c1ccccc1-c1ccc2c(c1)SN1CCCN=C21 [Compound 43]	> 4.5 µM	1.11 ± 0.08 µM	31.1 ± 2.38%	> 10 µM	reduced susceptibility
N=C1Sc2cc(-c3ccc4c(c3)OCCO4)ccc2C2=NCCCN12 [Compound 4]	> 4.5 µM	1.07 ± 0.05 µM	24 ± 5.76%	> 10 µM	–
N=C1Sc2cc(-c3ccc4cnccc4c3)ccc2C2=NCCCN12 [Compound 5]	> 4.5 µM	1.13 ± 0.05 µM	26 ± 8.27%	> 10 µM	–
COC(=O)c1ccc(-c2ccc3c(c2)SC(=N)N2CCCN=C32)cc1 [Compound 13]	> 4.5 µM	1.06 ± 0.01 µM	70.5 ± 0.73%	> 10 µM	reduced susceptibility
CC(C)(C)N=C1Sc2cc(-c3cc4ccccc4s3)ccc2C2=NCCCN12 [Compound 10]	> 4.5 µM	2.77 ± 0.28 µM	-0.48 ± 0.07%	> 10 µM	–
N=C1Sc2cc(-c3ccccc3)ccc2C2=NCCCN12 [Compound 12]	> 4.5 µM	1.15 ± 0.07 µM	-0.22 ± 0.12%	> 10 µM	–
N=C1Sc2cc(-c3ccc4c(c3)OCO4)ccc2C2=NCCCN12 [Compound 3]	> 4.5 µM	1.16 ± 0.02 µM	-0.23 ± 0.01%	> 10 µM	–
COC(=O)c1cccc(-c2ccc3c(c2)SN2CCCN=C32)c1 [Compound 40]	> 4.5 µM	1.72 ± 0.48 µM	-0.09 ± 0.08%	> 10 µM	–
N#Cc1ccc(-c2ccc3c(c2)SC(=N)N2CCCN=C32)cc1 [Compound 14]	> 4.5 µM	1.21 ± 0.04 µM	105 ± 0.47%	> 10 µM	reduced susceptibility
CC(C)Oc1cccc(-c2ccc3c(c2)SC(=N)N2CCCN=C32)c1 [Compound 22]	> 4.5 µM	0.9 ± 0.44 µM	-0.06 ± 0.24%	> 10 µM	–
c1ccc(-c2ccc3c(c2)C2=NCCCN2S3)cc1 [Compound 36]	> 4.5 µM	4.16 ± 0.09 µM	32.5 ± 10.1%	> 10 µM	–
N=C1Sc2cc(/C=C/c3ccccc3)ccc2C2=NCCCN12 [Compound 8]	> 4.5 µM	0.63 ± 0.25 µM	0.12 ± 0.21%	> 10 µM	–
N=C1Sc2cc(-c3ccc(OC(F)(F)F)cc3)ccc2C2=NCCCN12 [Compound 18]	> 4.5 µM	0.37 ± 0.13 µM	2.54 ± 0.42%	> 10 µM	–
c1ccc2c(-c3ccc4c(c3)SN3CCCN=C43)cccc2c1 [Compound 31]	> 4.5 µM	0.33 ± 0.01 µM	0%	> 10 µM	–
N=C1Sc2cc(-c3ccc(C(=O)c4ccccc4)cc3)ccc2C2=NCCCN12 [Compound 19]	> 4.5 µM	0.51 ± 0.14 µM	68.6 ± 0.43%	> 10 µM	reduced susceptibility
COc1ccccc1-c1ccc2c(c1)SN1CCCN=C21 [Compound 42]	> 4.5 µM	0.54 ± 0.22 µM	0.04 ± 0.15%	> 10 µM	–
